Common to all, as to assay type: cell-based
In one test the test system is SF-295. The test is described as follows: Percentage growth inhibition of in vitro subpanel tumor cell lines, CNS cancer. The conditions noted are these: Homo sapiens; SF-295 (CNS Cancer), 0.01 mM; read-out: Percentage growth inhibition (GI %). How it is done:
(§1) The anticancer activity of 4-((2-(2-(2-(4-Methoxyphenyl)-4,5-diphenyl-1H-imidazol-1-yl)acetyl)hydrazono)methyl)benzoic acid was assessed against leukemia, non-small cell lung cancer, colon cancer, central nervous system (CNS) cancer, melanoma, ovarian cancer, renal cancer, prostate cancer, and breast cancer.
(§2) Percentage growth inhibition (GI %) of in vitro subpanel tumor cell lines at 0.01 mM concentration for compound 4-((2-(2-(2-(4-Methoxyphenyl)-4,5-diphenyl-1H-imidazol-1-yl)acetyl)hydrazono)methyl)benzoic acid (Labeled as AE21 in the table) can be seen in Table 1 below.

The test system of the next test is SNB-75. The description is as above. The conditions noted are these: Homo sapiens; SNB-75 (CNS Cancer), 0.01 mM; read-out: Percentage growth inhibition (GI %). On the procedure:
as §1, §2

A further test has as its system PC-3. The test is described as follows: Percentage growth inhibition of in vitro subpanel tumor cell lines, prostate cancer. The conditions noted are these: Homo sapiens; PC-3 (Prostate Cancer), 0.01 mM; read-out: Percentage growth inhibition (GI %). How it is done:
as §1, §2

The subject of the next test is OVCAR-4. The test is described as follows: Percentage growth inhibition of in vitro subpanel tumor cell lines, ovarian cancer. The conditions noted are these: Homo sapiens; OVCAR-4 (Ovarian Cancer), 0.01 mM; read-out: Percentage growth inhibition (GI %). How it is done:
as §1, §2

Another test has as its system tumor cell lines. The test is described as follows: Anticancer activity against tumor cell lines (panel, overall statement). The conditions noted are these: some tumor cell lines, 0.01 mM concentration. On the procedure:
as §1, §2

The next test has as its system CAKI-1. The test is described as follows: Percentage growth inhibition of in vitro subpanel tumor cell lines, renal cancer. The note with it: Homo sapiens; CAKI-1 (Renal Cancer), 0.01 mM; read-out: Percentage growth inhibition (GI %). How it is done: as §1, §2
The next test relates to UO-31. The test is described as above. The conditions noted are these: Homo sapiens; UO-31 (Renal Cancer), 0.01 mM; read-out: Percentage growth inhibition (GI %). How it is done: as §1, §2
Another test concerns A498. Described as above. The note with it: Homo sapiens, 0.01 mM, read-out: Percentage growth inhibition (GI %). How it is done:
as §1, §2

The test system of another test is HCT-15. The test is described as follows: Percentage growth inhibition of in vitro subpanel tumor cell lines, colon cancer. The conditions noted are these: Homo sapiens; HCT-15 (Colon Cancer), 0.01 mM; read-out: Percentage growth inhibition (GI %). On the procedure: as §1, §2
The test system of the next test is HS 578T. The test is described as follows: Percentage growth inhibition of in vitro subpanel tumor cell lines, breast cancer. The conditions noted are these: Homo sapiens; HS 578T (Breast Cancer), 0.01 mM; read-out: Percentage growth inhibition (GI %). On the procedure: as §1, §2
The test system of another test is MCF7. The description is as above. The note with it: Homo sapiens, 0.01 mM, read-out: Percentage growth inhibition (GI %). How it is done:
as §1, §2

For a further test, the system named is NCI-H226. The test is described as follows: Percentage growth inhibition of in vitro subpanel tumor cell lines, non-small cell lung cancer. The note with it: Homo sapiens, 0.01 mM, read-out: Percentage growth inhibition (GI %). On the procedure: as §1, §2
For the next test, the system named is EKVX. Described as above. The note with it: Homo sapiens, 0.01 mM, read-out: Percentage growth inhibition (GI %). How it is done: as §1, §2
In another test the test system is NCI-H522. The test is described as above. The conditions noted are these: Homo sapiens, 0.01 mM, read-out: Percentage growth inhibition (GI %). On the procedure: as §1, §2
For the next test, the system named is NCI-H23. The description is as above. The note with it: Homo sapiens, 0.01 mM, read-out: Percentage growth inhibition (GI %). How it is done:
as §1, §2

The next test relates to NCI-H322M. Described as above. The conditions noted are these: Homo sapiens, 0.01 mM, read-out: Percentage growth inhibition (GI %). On the procedure:
as §1, §2

Another test has as its system MOLT-4. The test is described as follows: Percentage growth inhibition of in vitro subpanel tumor cell lines, leukemia. The note with it: Homo sapiens; MOLT-4 (Leukemia), 0.01 mM; read-out: Percentage growth inhibition (GI %). How it is done:
as §1, §2

A further test deals with RPMI-8226. Described as above. The conditions noted are these: Homo sapiens; RPMI-8226 (Leukemia), 0.01 mM; read-out: Percentage growth inhibition (GI %). On the procedure:
as §1, §2

In a further test the test system is CCRF-CEM. The test is described as above. The conditions noted are these: Homo sapiens, 0.01 mM, read-out: Percentage growth inhibition (GI %). On the procedure: as §1, §2
For a further test, the system named is LOX IMVI. The test is described as follows: Percentage growth inhibition of in vitro subpanel tumor cell lines, melanoma. The note with it: Homo sapiens, 0.01 mM, read-out: Percentage growth inhibition (GI %). On the procedure:
as §1, §2

In a further test the test system is SK-MEL-5. The description is as above. The note with it: Homo sapiens; SK-MEL-5 (Melanoma), 0.01 mM; read-out: Percentage growth inhibition (GI %). On the procedure:
as §1, §2

The test system of the next test is MDA-MB-435. The test is described as above. The note with it: Homo sapiens; MDA-MB-435 (Melanoma), 0.01 mM; read-out: Percentage growth inhibition (GI %). On the procedure:
as §1, §2

With `COc1ccc(-c2nc(-c3ccccc3)c(-c3ccccc3)n2CC(=O)N/N=C/c2ccc(C(=O)O)cc2)cc1` [AE21, 4-((2-(2-(2-(4-Methoxyphenyl)-4,5-diphenyl-1H-imidazol-1-yl)acetyl)hydrazono)methyl)benzoic acid], the inhibition – broadly, the change of the read-out against control, counted positive when it falls – at 10 µM stood at 5.54% with SF-295; 18.9% in the test with SNB-75; 2.68% in the test with PC-3; 13.7% with OVCAR-4; 6.23% in the test with CAKI-1; 0.61% with UO-31. In addition, the inhibition at 10 µM was found to be 13.5% with A498; 3.82% in the test on HCT-15; 18.6% with HS 578T; 13.4% in the test on MCF7; 6.62% with NCI-H226; 10.3% in the test on EKVX. In addition, the inhibition at 10 µM in the test on NCI-H522 amounted to 12.4%; in the test on NCI-H23 it was 4.19%; with NCI-H322M it was 0.85%; in the test on MOLT-4, 4.6%; in the test with RPMI-8226 it was 0.34%; with CCRF-CEM it was 2.61%. The inhibition at 10 µM with LOX IMVI was 5.6%; in the test with SK-MEL-5, 1.29%; in the test on MDA-MB-435, 9.17%. In addition, the anticancer activity result with tumor cell lines is listed as “moderate efficiency”.

These data come from patent US11939299B1, “4-((2-(2-(2-(4-methoxyphenyl)-4,5-diphenyl-1H-imidazol-1-yl)acetyl)hydrazono)methyl)benzoic acid as an anti-cancer compound” (KING FAISAL UNIVERSITY, priority 2023, dated 2024).
